Data from article PMC9034004, “Methionine epimerization in cyclic peptides” (RSC Advances, 2021).

Experiments:
MDA-MB-231 cells = experiment: CytoTox Green cytotoxicity assay, MDA-MB-231; assay type: cell-based, Human; settings: 100 μM, 48 h, 8000 cells per well, DMSO 2% as negative control
Procedure: A Forma Series II 3110 Water-Jacketed CO2 Incubator (Thermo Fisher Scientific) containing T-75 cell culture flasks at 37 °C under a humidified atmosphere was used to culture human breast cancer cell lines MDA-MB-231 and Sk-Br-3. 10% fetal bovine serum (FBS) and 1% penicillin under 5% CO2 were used to supplement McCoy's 5A Modified Medium to culture Sk-Br-3 cell line, and 10% FBS and 1% penicillin under 0% CO2 were used to supplement Leibovitz's L-15 Medium to culture MDA-MB-231 cell line. Each cell line's culture medium was changed every 2–3 days.
MDA-MB-231 and Sk-Br-3 cells were plated in 96-well plates at 8000 cells per well (final culture volume – 300 μL) and allowed to grow overnight for attachment before being treated with LO. LO stock solutions were prepared in DMSO at various concentrations of 200 μM; 100 μM; 50 μM, 25 μM, 12.5 μM. CytoTox Green reagent was added to wells during treatments. DMSO treated cells (final concentration at 2%) were used as a negative control. Following the manufacturer's recommended protocols, LOs cytotoxicity was continuously monitored at 24 h intervals for 120 h and calculated using the equation.Cytotoxicity (%) = [OD (experiment) − OD (vehicle control)]/[OD (maximum cell death) − OD (vehicle control)] × 100%

[1] = Alkaline treatment of LOs (base-catalysed Met epimerization, HPLC); assay type: physicochemical; settings: LOs 1, 4 and 7 mixture treated with KOH in 70% aqueous ethanol, HPLC at 214 nm and 280 nm
Procedure: HPLC data was collected at a wavelength range of 190–300 nm using Agilent 1200 series HPLC system equipped with an autosampler, quaternary pump, diode array detector and degasser. Chromatographic separations for Marfey's derivatives were conducted on 100 mm × 4.6 mm i.d., reversed-phase Chromolith® Performance RP-18e columns (Merck KGaA, Darmstadt, Germany). The mobile phase consisted of H2O and 0.05 M triethyl phosphate buffer at a flow rate of 2 mL min^−1 (85 : 15 for 3 min, 85 : 15 to 60 : 40 in 18 min, to 10 : 90 in 0.5 min, 10 : 90 for 1 min, to 85 : 15 in 0.5 min, to equilibration for 2 min) with column compartment at 30 °C. Chromolith® High Resolution RP-18e columns 50 mm × 4.6 mm i.d. (Merck KGaA, Darmstadt, Germany) equipped with in-line filters were used for LO analytical characterization. H2O and CH3CN linear HPLC gradient with a flow rate of 2 mL min^−1 (50 : 50 to 20 : 80 for 1.8 min, 20 : 80 to 10 : 90 in 0.1 min, to 50 : 50 in 0.1 min, to equilibration for 1 min), and a column compartment at 32 °C was used.
LO (1 g) was dissolved in 70% aqueous ethanol (2.5 mL) and KOH (0.25 g) was added. The mixture was sonicated for 30 min. A portion of the mixture (∼1 mL) was transferred to a glass vial and extracted with EtOAc (∼3 mL) then settled. The upper EtOAc phase was transferred by pipette to a clean tube and dried under airflow. […]

Row | Substance | % cytotoxicity (MDA-MB-231 cells) [%] | new HPLC peak after KOH treatment (in words) [1]
1 | [1−9-NαC], DMet-linusorb B2 [LO 8] | ~100 | –
2 | [1−9-NαC]-linusorb B2 [LO 2] | ~40 | –
3 | [1−9-NαC]-linusorb B3 [LO 1] | – | no extra peak was observed
